In ChEMBL document CHEMBL1909046, “DrugMatrix in vitro pharmacology data”:

Assays:
[1] = DRUGMATRIX: Purinergic P2X radioligand binding (ligand: [3H] alpha, beta-Methylene-ATP); type: cell membranes, Oryctolagus cuniculus, New Zealand albino, Urinary bladder, Membrane; conditions: Not Active = under 50% inhibition at 10 µM
[2] = DRUGMATRIX: Atrial Natriuretic Factor (ANF) radioligand binding (ligand: [125I] ANF (rat)); type: cell membranes, Cavia porcellus, Dunkin-Hartley, Adrenal gland, Membrane; conditions: Not Active = under 50% inhibition at 10 µM
[3] = DRUGMATRIX: Sigma2 radioligand binding (ligand: [3H] Ifenprodil); type: cell membranes, Rattus norvegicus, Wistar, Brain, Membrane; conditions: Not Active = under 50% inhibition at 10 µM
[4] = DRUGMATRIX: Leukotriene, BLT (LTB4) radioligand binding (ligand: [3H]LTB4); type: cell membranes, Membrane; conditions: u-937; Not Active = under 50% inhibition at 10 µM
[5] = biological target: Aldo-keto reductase family 1 member B1 (Rattus norvegicus, UniProt P07943); assay: biochemical; type: tissue-based, Lens of camera-type eye;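 also: inhibition of aldose reductase enzyme activity, measured with DL-glyceraldehyde as the substrate; in other assays of this panel Not Active means under 50% inhibition at 10 µM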
[6] = DRUGMATRIX: Potassium Channel [KATP] radioligand binding (ligand: [3H] Glyburide); type: cell membranes, Membrane; conditions: hit-t15; Not Active = under 50% inhibition at 10 µM
[7] = biological target: T1, C-X-C chemokine receptor type 1 (Homo sapiens, UniProt P25024); also: in other assays of this panel Not Active means under 50% inhibition at 10 µM
T1 sequence (P25024 whole entry): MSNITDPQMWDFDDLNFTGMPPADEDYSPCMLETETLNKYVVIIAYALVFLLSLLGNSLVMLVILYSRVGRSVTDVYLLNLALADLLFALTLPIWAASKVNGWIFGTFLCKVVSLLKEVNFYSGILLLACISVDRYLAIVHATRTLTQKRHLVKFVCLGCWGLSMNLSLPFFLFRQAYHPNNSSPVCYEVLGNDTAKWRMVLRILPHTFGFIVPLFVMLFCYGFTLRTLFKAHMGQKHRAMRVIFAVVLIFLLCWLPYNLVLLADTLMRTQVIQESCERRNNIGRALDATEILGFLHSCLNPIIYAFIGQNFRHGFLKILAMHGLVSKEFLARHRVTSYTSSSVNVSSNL

C1CCN2C[C@@H]3C[C@@H](CN4CCCC[C@@H]34)[C@H]2C1 [SPARTEINE]
Not Active: IC50 [1] | Ki [1] | IC50 [2] | Ki [2] | IC50 [3] | Ki [3] | IC50 [4] | Ki [4] | IC50 [5] | IC50 [6] | Ki [6] | IC50 [7]

CC[C@H](C)C(=O)O[C@H]1CCC=C2C=C[C@H](C)[C@H](CC[C@@H]3C[C@@H](O)CC(=O)O3)[C@H]21 [MEVASTATIN]
Not Active: IC50 [1] | Ki [1] | IC50 [2] | Ki [2] | IC50 [3] | Ki [3] | IC50 [4] | Ki [4] | IC50 [5] | IC50 [6] | Ki [6] | IC50 [7]

CS(=O)(=O)c1ccc(C2=C(c3ccccc3)C(=O)OC2)cc1 [ROFECOXIB]
Not Active: IC50 [1] | Ki [1] | IC50 [2] | Ki [2] | IC50 [3] | Ki [3] | IC50 [4] | Ki [4] | IC50 [5] | IC50 [6] | Ki [6] | IC50 [7]

Cc1cn([C@H]2C=C[C@@H](CO)O2)c(=O)[nH]c1=O [STAVUDINE]
Not Active: IC50 [1] | Ki [1] | IC50 [2] | Ki [2] | IC50 [3] | Ki [3] | IC50 [4] | Ki [4] | IC50 [5] | IC50 [6] | Ki [6] | IC50 [7]

Nc1nc(N)c2nc(-c3ccccc3)c(N)nc2n1
Not Active: IC50 [1] | Ki [1] | IC50 [2] | Ki [2] | IC50 [3] | Ki [3] | IC50 [4] | Ki [4] | IC50 [5] | IC50 [6] | Ki [6] | IC50 [7]

Cc1[nH]c(=O)c(C#N)cc1-c1ccncc1 [MILRINONE]
Not Active: IC50 [1] | Ki [1] | IC50 [2] | Ki [2] | IC50 [3] | Ki [3] | IC50 [4] | Ki [4] | IC50 [5] | IC50 [6] | Ki [6] | IC50 [7]

C[C@]12CCC(=O)C[C@@H]1CC[C@@H]1[C@@H]2CC[C@]2(C)[C@@H](O)CC[C@@H]12 [STANOLONE]
Not Active: IC50 [1] | Ki [1] | IC50 [2] | Ki [2] | IC50 [3] | Ki [3] | IC50 [4] | Ki [4] | IC50 [5] | IC50 [6] | Ki [6] | IC50 [7]

CC1(C)[C@H](C(=O)O)N2C(=O)C[C@H]2S1(=O)=O [SULBACTAM]
Not Active: IC50 [1] | Ki [1] | IC50 [2] | Ki [2] | IC50 [3] | Ki [3] | IC50 [4] | Ki [4] | IC50 [5] | IC50 [6] | Ki [6] | IC50 [7]

CCOC(=O)C1=C(C)NC(C)=C(C(=O)OCC)C1c1ccccc1/C=C/C(=O)OC(C)(C)C [LACIDIPINE]
Not Active: IC50 [1] | Ki [1] | IC50 [2] | Ki [2] | IC50 [3] | Ki [3] | IC50 [4] | Ki [4] | IC50 [5] | IC50 [6] | Ki [6] | IC50 [7]

CC(N)C12CC3CC(CC(C3)C1)C2 (configuration not stated) [RIMANTADINE]
Not Active: IC50 [1] | Ki [1] | IC50 [2] | Ki [2] | IC50 [3] | Ki [3] | IC50 [4] | Ki [4] | IC50 [5] | IC50 [6] | Ki [6] | IC50 [7]

CO[C@@]12[C@H](COC(N)=O)C3=C(C(=O)C(C)=C(N)C3=O)N1C[C@@H]1N[C@@H]12 [MITOMYCIN]
Not Active: IC50 [1] | Ki [1] | IC50 [2] | Ki [2] | IC50 [3] | Ki [3] | IC50 [4] | Ki [4] | IC50 [5] | IC50 [6] | Ki [6] | IC50 [7]
